From patent publication US9833487B2, “Composition for preventing and treating arthritic diseases” (priority 2008, dated 2017)

Key:
[1] = tested on: type II collagen mRNA in cartilage tissue; experiment: Gene expression of Col II (RT-PCR); assay type: cell-based, human; conditions: IL-1α treated cartilage tissue; FIG. 13
Experimental: (§1) The joint cartilage of human was provided from the patient who had taken artificial joint surgery (Orthopedics Surgery Dep. of Kyunghee Medical Center). […] The tissue was washed with the medium several times and then the articular tissue was cultured at 37° C. in humidified […] incubator. 1 or 2 days after the incubation, the medium was replaced with new basic medium containing inactivated 5% fetal bovine serum with heat treatment, 10 mM HEPES, and 100 unit/ml of penicillin-streptomycin, and 30 mg of the chondrocyte was transferred to 48-well plate. After culturing for 1 hour, 5 ng/μl of interleukin-1α (IL-1α, R&D system, USA) was added to the medium to induce inflammation and various concentrations of test sample (KM-1), ETCP (SK Chemicals), Celecoxib (CEL, Pfizer Co., USA), and Glucosamine (GLUCO, Sigma Co., USA), i.e., 0.1, 0.2, and 0.4 mg/ml, were added thereto respectively. […] The stained product was washed for 10 minutes with distilled water and the result was determined at UV wavelength (260 nm). The expression of proteoglycan and Col II gene collected from the cartilage tissue and chondrocytic cell of rabbit in above Reference Example 3 was determined and the test was performed by using reverse transcription polymerase chain reaction (RT-PCR) with the method disclosed in Reference Example 4.

pJNK = experiment: MAPK phosphorylation (western blot), pJNK; assay type: cell-based, human; conditions: FIG. 18
MMP-13 (collagenase-13) = experiment: MMP-13 activity in human cartilage tissue medium; assay type: cell-based; conditions: FIG. 14
Experimental: (§2) The joint cartilage of human was provided from the patient who had taken artificial joint surgery (Orthopedics Surgery Dep. of Kyunghee Medical Center). […] The tissue was washed with the medium several times and then the articular tissue was cultured at 37° C. in humidified […] incubator. 1 or 2 days after the incubation, the medium was replaced with new basic medium containing inactivated 5% fetal bovine serum with heat treatment, 10 mM HEPES, and 100 unit/ml of penicillin-streptomycin, and 30 mg of the chondrocyte was transferred to 48-well plate. After culturing for 1 hour, 5 ng/μl of interleukin-1α (IL-1α, R&D system, USA) was added to the medium to induce inflammation and various concentrations of test sample (KM-1), ETCP (SK Chemicals), Celecoxib (CEL, Pfizer Co., USA), and Glucosamine (GLUCO, Sigma Co., USA), i.e., 0.1, 0.2, and 0.4 mg/ml, were added thereto respectively. […] In order to measure proteolytic activity, each 25 μl of medium was added to 96-well plate with 50 μl of the substrate to incubate at 37° C. for 1 hr and the optical density was measured by ELISA reader (Molecular devices, USA) at 450 nm. The activity of each sample on MMP-1 and MMP-13 was determined by calculating the MMP (%) of medium in each well.

[2] = tested on: proteoglycan mRNA in cartilage tissue; experiment: Gene expression of proteoglycan (RT-PCR); assay type: cell-based, human; conditions: IL-1α treated cartilage tissue; FIG. 13
Experimental: as §1

[3] = tested on: GAG degradation in human articular cartilage tissue; experiment: Dissociation of glycosaminoglycan (DMB assay), IL-1α induced cartilage tissue; assay type: cell-based; conditions: 0.1, 0.2, 0.4 mg/ml, FIG. 12
Experimental: The joint cartilage of human was provided from the patient who had taken artificial joint surgery (Orthopedics Surgery Dep. of Kyunghee Medical Center). […] The tissue was washed with the medium several times and then the articular tissue was cultured at 37° C. in humidified […] incubator. 1 or 2 days after the incubation, the medium was replaced with new basic medium containing inactivated 5% fetal bovine serum with heat treatment, 10 mM HEPES, and 100 unit/ml of penicillin-streptomycin, and 30 mg of the chondrocyte was transferred to 48-well plate. After culturing for 1 hour, 5 ng/μl of interleukin-1α (IL-1α, R&D system, USA) was added to the medium to induce inflammation and various concentrations of test sample (KM-1), ETCP (SK Chemicals), Celecoxib (CEL, Pfizer Co., USA), and Glucosamine (GLUCO, Sigma Co., USA), i.e., 0.1, 0.2, and 0.4 mg/ml, were added thereto respectively. […] The concentration of GAG in the culture medium of cartilage tissue incubated with the procedure disclosed in Reference Example 3 was measured by determining the amount of polyanionic substance produced by being reacted with blyscan dye solution and chondroitin sulfate was used as a standard. […] The amount of spectroscopic GAG was determined at 540 nm and the inhibition rate was expressed based on the amount of degradated GAG induced by interleukin-1α (IL-1α).

pERK = experiment: MAPK phosphorylation (western blot), pERK; assay type: cell-based, human; conditions: FIG. 18
MMP-1 (collagenase-1) = experiment: MMP-1 activity in human cartilage tissue medium; assay type: cell-based; conditions: FIG. 15
Experimental: as §2

pp 38 = experiment: MAPK phosphorylation (western blot), pp38; assay type: cell-based, human; conditions: FIG. 18

## O=C(/C=C/c1ccc(O)c(O)c1)O[C@@H]1C[C@](O)(C(=O)O)C[C@@H](O)[C@H]1O [chlorogenic acid]
[1]
  mRNA gene expression of type II collagen: increased mRNA gene expression of proteoglycan and type II collagen
pJNK
  inhibition of pJNK: potently inhibited
MMP-13 (collagenase-13)
  inhibition of MMP-13 activity: significantly inhibited the activity of collagenase MMP-1 and MMP-13 in a dose dependent manner
[2]
  mRNA gene expression of proteoglycan: increased mRNA gene expression of proteoglycan and type II collagen
[3]
  inhibition of the degradation of GAG: potently inhibited the degradation of GAG
pERK
  inhibition of pERK: inhibited the activity of pERK
MMP-1 (collagenase-1)
  inhibition of MMP-1 activity: significantly inhibited the activity of collagenase MMP-1 and MMP-13 in a dose dependent manner
Pp 38
  inhibition of pp 38: potently inhibited
